Legend:
oral ulcer rats = experiment: Pharmacodynamic study in NaOH-induced oral ulcer rats; design: species or system SD rats; settings: rat, in vivo
Excerpt: After 3 days of adaptive feeding, each rat was anesthetized and fixed on an operating table, the labial mucosa of the SD rat was dried with sterile cotton balls, and further sterile cotton balls were used for moisture isolation. A 3 mm×3 mm NaOH crystal was placed on the labial mucosa, and then removed after being maintained for 30 s. A treated area was wiped with sterile cotton balls containing normal saline to remove residual NaOH. […]
An area method was used to macroscopically evaluate the oral ulcer area, a maximum transverse diameter and longitudinal diameter of the ulcer were measured by vernier calipers, which were marked as d1 and d2, respectively, and a ulcer area was S=π×d1×d2×¼ (π=3.14). […]
The analysis was performed by t-test, and normally distributed quantitative data were expressed as mean±standard deviation (X, ±S), one-way ANOVA and LSD methods were used for pairwise comparison, and the Wilcoxon rank-sum test was used when the ANOVA conditions were not met. […]

[1] = States of preparations observed with the naked eyes (solubilization); type: physicochemical; settings: water, without TPGS, apparent concentration 2 mg/ml
Method: A surfactant TPGS was selected for solubilization. Preparation method: 40 mg of THY was weighed and placed in a beaker, added with a certain amount of water and TPGS and magnetically stirred at room temperature for 24 h. In micelle preparations 2-8, mass ratios of THY to TPGS were 2:1, 1:1, 1:2.5, 1:5, 1:7, 1:10, 1:15, and 1:20, respectively.
40 mg of THY-Tos was weighed and placed in a beaker, and added with a certain amount of water and TPGS. For Preparations 2 to 5, the mass ratios of THY-Tos to TPGS were 1:1, 1:7, 1:10, and 1:15, respectively. The above micelle preparations were magnetically stirred for 24 h to obtain the final products.

Cc1ccc(C(C)C)c(OC(=O)CCC(=O)Oc2c(C)c(C)c3c(c2C)CC[C@@](C)(CCC[C@H](C)CCC[C@H](C)CCCC(C)C)O3)c1 [THY-Tos]
efficacy on an animal-based oral ulcer model compared with THY in combination with vitamin E (oral ulcer rats): not significantly different | solubility (in words) [1]: poor solubility

From patent US12324790B1, “Preparation method and application of micelle preparation containing thymol and derivative thereof” (Nanjing Mucosa Tech Co., Ltd., priority 2024, dated 2025)
